Experimental data from patent US20240415819A1, “MACROCYCLIC COMPOUNDS AS PROTEASOME SUBUNIT BETA TYPE-5 INHIBITORS” (Lead Discovery Center GmbH, priority 2021, published 2024).
Where two headings read alike, the source gives them in different places.

Experiments:
[1] = tested on: Hs 746T (human gastric carcinoma cell line); test: 48 hr CTG viability assay, Hs 746T; type: cell-based; settings: Hs746T
Summary of the method: (§1)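 Growth inhibition by compound over 48 h; IC50 (nM) derived from duplicate CellTiter-Glo luminescence readings across 0.0015–10 uM.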

[2] = target: T1, β5 subunit of the human constitutive proteasome (CPS) (Homo sapiens, UniProt P28074); test: β5 inhibition assay, human constitutive proteasome (Suc-LLVY-AMC); type: biochemical; settings: IC50 class, Suc-LLVY-AMC substrate
T1 construct: purchased Boston Biochem E-360
Experimental: The enzymatic activity of the β5 subunit of the human constitutive proteasome (CPS) is analyzed. In another assay, which differs from the assay of the human constitutive proteasome only in using the human immunoproteasome (IPS) the enzymatic activity of the β5 subunit of the human immunoproteasome (IPS) is analyzed. […] Inhibition is indicated as IC50 [nM] (“-”=not measured).

[3] = tested on: A549 (human lung carcinoma cell line); test: Glo assay of A549 cells (Table 3; ProteasomeGlo plating scheme); type: cell-based; settings: Homo sapiens
Summary of the method: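 Cells plated in 384 wells; compound, DMSO, staurosporine transferred by ECHO; 105 min, 37° C., 5% CO2; Proteasome-Glo (Suc-LLVY-Glo) reagent added; dark 10-15 min; luminescence; IC50 nM.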

[4] = target: T2, β5 subunit of the human immunoproteasome (IPS) (Homo sapiens, UniProt P28062); test: β5 inhibition assay, human immunoproteasome (Suc-LLVY-AMC); type: biochemical; settings: IC50 class, Suc-LLVY-AMC substrate
T2 construct: purchased Boston Biochem E-370
Summary of the method: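 Human immunoproteasome (1 nM final) was preincubated 10 min at RT with compound in 100 mM HEPES pH 7.5, 50 mM NaCl, 0.02% SDS, 1 mM DTT. Suc-LLVY-AMC (22.6 μM final) was then added for 4 h at RT in the dark. After stopping with 1 μM bortezomib, AMC fluorescence was read (ex 355/em 460 nm).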

[5] = tested on: RPMI 8226 (B lymphocyte cell line, multiple myeloma); test: 48 hr CTG viability assay, RPMI 8226; type: cell-based; settings: Homo sapiens
Summary of the method: as §1

[6] = tested on: MM1 S (B lymphoblast cell line); test: 48 hr CTG viability assay, MM1S; type: cell-based; settings: Homo sapiens
Summary of the method: as §1

[7] = 48 hr CTG, read-out: Hs 746T IC50
[8] = A549 cells, read-out: PGLo A549
[9] = RPMI-8226, 48 hr CTG, read-out: RPMI-8226 IC50

Measured: IC50

Cc1ccc2cc1CNC(=O)[C@H](CCc1ccccc1)NC(=O)[C@@H](NC(=O)N1CCC(O)CC1)CC(=O)N1CCCC(CCO2)C1 (stereo partly drawn) [Compound 681, 4-hydroxy-N-((9S,12S)-5^4-methyl-8,11,14-trioxo-9-phenethyl-4-oxa-7,10-diaza-1(3,1)-piperidina-5(1,3)-benzenacyclotetradecaphane-12-yl)piperidine-1-carboxamide]
< 100 nM: [1]; [7] | [2] | [3]; [8] | [4] | [5]; [9] | [6]; 48 hr CTG, read-out: MM1S IC50

CC(C)(CO)C(=O)N[C@H]1CC(=O)N2CCCC(CCOc3ccc(F)c(c3)CNC(=O)[C@H](CCc3ccccc3)NC1=O)C2 (stereo partly drawn) [Compound 684, N-((9S,12S)-5^4-fluoro-8,11,14-trioxo-9-phenethyl-4-oxa-7,10-diaza-1(3,1)-piperidina-5(1,3)-benzenacyclotetradecaphane-12-yl)-3-hydroxy-2,2-dimethylpropanamide]
< 100 nM: [1]; [7] | [2] | [3]; [8] | [4] | [5]; [9] | [6]; 48 hr CTG, read-out: MM1S IC50

CC(=O)N[C@H]1CC(=O)N2CCCC(CCOc3ccc(C)c(c3)CNC(=O)[C@H](C3Cc4ccccc4C3)NC1=O)C2 (stereo partly drawn) [Compound 685, N-((9S,12S)-9-(2,3-dihydro-1H-inden-2-yl)-5^4-methyl-8,11,14-trioxo-4-oxa-7,10-diaza-1(3,1)-piperidina-5(1,3)-benzenacyclotetradecaphane-12-yl)acetamide]
< 100 nM: [1]; [7] | [2] | [3]; [8] | [4] | [5]; [9] | [6]; 48 hr CTG, read-out: MM1S IC50

C#CCC[C@@H]1NC(=O)[C@@H](NC(=O)Cc2cn3ccsc3n2)CC(=O)N2CCCC(CCOc3ccc(C)c(c3)CNC1=O)C2 (stereo partly drawn) [Compound 686, N-((9S,12S)-9-(but-3-yn-1-yl)-5^4-methyl-8,11,14-trioxo-4-oxa-7,10-diaza-1(3,1)-piperidina-5(1,3)-benzenacyclotetradecaphane-12-yl)-2-(imidazo[2,1-b]thiazol-6-yl)acetamide]
< 100 nM: [1]; [7] | [2] | [3]; [8] | [4] | [5]; [9] | [6]; 48 hr CTG, read-out: MM1S IC50

Cc1ccc2cc1CNC(=O)[C@H](CCc1ccccc1)NC(=O)[C@@H](NC(=O)N1Cc3ccc(N)cc3C1)CC(=O)N1CCCC(CCO2)C1 (stereo partly drawn) [Compound 687, 5-amino-N-((9S,12S)-5^4-methyl-8,11,14-trioxo-9-phenethyl-4-oxa-7,10-diaza-1(3,1)-piperidina-5(1,3)-benzenacyclotetradecaphane-12-yl)isoindoline-2-carboxamide]
< 100 nM: [1]; [7] | [2] | [3]; [8] | [4] | [5]; [9] | [6]; 48 hr CTG, read-out: MM1S IC50

CCN1CCN(C(=O)N[C@H]2CC(=O)N3CCCC(CCOc4ccc(C)c(c4)CNC(=O)[C@H](CCc4ccccc4)NC2=O)C3)CC1 (stereo partly drawn) [Compound 688, 4-ethyl-N-((9S,12S)-5^4-methyl-8,11,14-trioxo-9-phenethyl-4-oxa-7,10-diaza-1(3,1)-piperidina-5(1,3)-benzenacyclotetradecaphane-12-yl)piperazine-1-carboxamide]
< 100 nM: [1]; [7] | [2] | [3]; [8] | [4] | [5]; [9] | [6]; 48 hr CTG, read-out: MM1S IC50

Cc1ccc2cc1CNC(=O)[C@H](CCc1ccccc1)NC(=O)[C@@H](NCC(C)(C)CO)CC(=O)N1CCCC(CCO2)C1 (stereo partly drawn) [Compound 690, (9S,12S)-12-((3-hydroxy-2,2-dimethylpropyl)amino)-5^4-methyl-9-phenethyl-4-oxa-7,10-diaza-1(3,1)-piperidina-5(1,3)-benzenacyclotetradecaphane-8,11,14-trione]
< 100 nM: [1]; [7] | [2] | [3]; [8] | [4] | [5]; [9] | [6]; 48 hr CTG, read-out: MM1S IC50

Cc1ccc2cc1CNC(=O)[C@H](CCc1ccccc1)NC(=O)[C@@H](NC(=O)N1CC(O)C1)CC(=O)N1CCCC(CCO2)C1 (stereo partly drawn) [Compound 691, 3-hydroxy-N-((9S,12S)-5^4-methyl-8,11,14-trioxo-9-phenethyl-4-oxa-7,10-diaza-1(3,1)-piperidina-5(1,3)-benzenacyclotetradecaphane-12-yl)azetidine-1-carboxamide]
< 100 nM: [1]; [7] | [2] | [3]; [8] | [4] | [5]; [9] | [6]; 48 hr CTG, read-out: MM1S IC50

Cc1ccc2cc1CNC(=O)[C@H](CCc1ccccc1)NC(=O)[C@@H](NC(=O)CCNCCC1CCC1)CC(=O)N1CCCC(CCO2)C1 (stereo partly drawn) [Compound 693, 3-((2-cyclobutylethyl)amino)-N-((9S,12S)-5^4-methyl-8,11,14-trioxo-9-phenethyl-4-oxa-7,10-diaza-1(3,1)-piperidina-5(1,3)-benzenacyclotetradecaphane-12-yl)propanamide]
< 100 nM: [1]; [7] | [2] | [3]; [8] | [4] | [5]; [9] | [6]; 48 hr CTG, read-out: MM1S IC50

Cc1ccc2cc1CNC(=O)[C@H](CCc1ccccc1)NC(=O)[C@@H](NC(=O)CCNCC1CC1)CC(=O)N1CCCC(CCO2)C1 (stereo partly drawn) [Compound 694, 3-((cyclopropylmethyl)amino)-N-((9S,12S)-5^4-methyl-8,11,14-trioxo-9-phenethyl-4-oxa-7,10-diaza-1(3,1)-piperidina-5(1,3)-benzenacyclotetradecaphane-12-yl)propanamide]
< 100 nM: [1]; [7] | [2] | [3]; [8] | [4] | [5]; [9] | [6]; 48 hr CTG, read-out: MM1S IC50

Cc1ccc2cc1CNC(=O)[C@H](CCc1ccccc1)NC(=O)[C@@H](NC(=O)CCN[C@@H]1C[C@H]3CC[C@@H]1C3)CC(=O)N1CCCC(CCO2)C1 [Compound 695, 3-(((1R,2R,4S)-bicyclo[2.2.1]heptan-2-yl)amino)-N-((9S,12S)-5^4-methyl-8,11,14-trioxo-9-phenethyl-4-oxa-7,10-diaza-1(3,1)-piperidina-5(1,3)-benzenacyclotetradecaphane-12-yl)propanamide]
< 100 nM: [1]; [7] | [2] | [3]; [8] | [4] | [5]; [9] | [6]; 48 hr CTG, read-out: MM1S IC50

Cc1ccc2cc1CNC(=O)[C@H](CCc1ccccc1)NC(=O)[C@@H](NC(=O)Cc1ccccc1)CCN(C)C(=O)N1CCCC(CCO2)C1 (stereo partly drawn) [Compound 696, N-((9S,12S)-5^4,15-dimethyl-8,11,16-trioxo-9-phenethyl-4-oxa-7,10,15-triaza-1(3,1)-piperidina-5(1,3)-benzenacyclohexadecaphane-12-yl)-2-phenylacetamide]
< 100 nM: [1]; 48 h, read-out: Hs 746T IC50 [nM] | [2] | [3]; A549, read-out: PGLo A549 [nM] | [4] | [5]; RPMI-8226, 48 h, read-out: RPMI-8226 IC50 [nM] | [6]; 48 h, read-out: MM1S IC50 [nM]

CC(=O)N1CC(CC(=O)N[C@H]2CC(=O)N3CCCC(CCOc4ccc(C)c(c4)CNC(=O)[C@H](CCc4ccccc4)NC2=O)C3)C1 (stereo partly drawn) [Compound 697, 2-(1-acetylazetidin-3-yl)-N-((9S,12S)-5^4-methyl-8,11,14-trioxo-9-phenethyl-4-oxa-7,10-diaza-1(3,1)-piperidina-5(1,3)-benzenacyclotetradecaphane-12-yl)acetamide]
< 100 nM: [1]; [7] | [2] | [3]; [8] | [4] | [5]; [9] | [6]; 48 hr CTG, read-out: MM1S IC50
